Source: PubChem BioAssay (NCI)
Values joined by “and” are separate entries in the source; they are usually repeats but may differ in a detail not shown here. Identical values can stand only once.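 96-well plates; 48 h exposure; 5 concentrations. Endpoints by linear interpolation between flanking doses. Not reached: highest tested concentration assigned. GI50 = concentration required for 50% inhibition of growth. TGI: total growth inhibition.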

Legend:
Assay in all cases: growth of human tumour cells (NCI), 48 h; in the data active = GI50 below about 0.43 µM; inactive = the rest
[1] = test system: 786-0 renal
[2] = test system: A498 renal
[3] = test system: A549 NSCLC
[4] = test system: ACHN renal
[5] = test system: BT-549 breast
[6] = test system: CAKI-1 renal
[7] = test system: CCRF-CEM leukemia
[8] = test system: COLO 205 colon
[9] = test system: DU-145 prostate
[10] = test system: EKVX NSCLC
[11] = test system: HCC-2998 colon
[12] = test system: HCT-116 colon
[13] = test system: HCT-15 colon
[14] = test system: HL-60(TB) leukemia
[15] = test system: HOP-62 NSCLC
[16] = test system: HOP-92 NSCLC
[17] = test system: HS 578T breast
[18] = test system: HT29 colon
[19] = test system: IGROV1 ovarian
[20] = test system: KM12 colon
[21] = test system: LOX IMVI melanoma
[22] = test system: M14 melanoma
[23] = test system: MALME-3M melanoma
[24] = test system: MCF7 breast
[25] = test system: MDA-MB-231 breast
[26] = test system: MDA-MB-435
[27] = test system: MDA-N
[28] = test system: MOLT-4 leukemia
[29] = test system: NCI-H226 lung
[30] = test system: NCI-H23 lung
[31] = test system: NCI-H460 lung
[32] = test system: NCI-H522 lung
[33] = test system: NCI/ADR-RES ovarian
[34] = test system: OVCAR-3 ovarian
[35] = test system: OVCAR-4 ovarian
[36] = test system: OVCAR-5 ovarian
[37] = test system: OVCAR-8 ovarian
[38] = test system: PC-3 prostate
[39] = test system: RPMI-8226 leukemia
[40] = test system: RXF 393 renal
[41] = test system: SF-268 CNS
[42] = test system: SF-295 CNS
[43] = test system: SF-539 CNS
[44] = test system: SK-MEL-2 melanoma
[45] = test system: SK-MEL-28 melanoma
[46] = test system: SK-MEL-5 melanoma
[47] = test system: SK-OV-3 ovarian
[48] = test system: SN12C renal
[49] = test system: SNB-19 CNS
[50] = test system: SNB-75 CNS
[51] = test system: SR leukemia
[52] = test system: SW-620 colon
[53] = test system: T-47D breast
[54] = test system: TK-10 renal
[55] = test system: U251 CNS
[56] = test system: UACC-257 melanoma
[57] = test system: UACC-62 melanoma
[58] = test system: UO-31 renal
[59] = test system: K-562 leukemia

CC1=CC(=O)c2ccccc2C1=O
30.7 µM: TGI [11]
5.76 µM: TGI [7]
2.94 µM: TGI [16]
11.7 µM: TGI [32]
33.5 µM: TGI [49]
19.4 µM: TGI [30]
14.1 µM: TGI [13]
22.7 µM: TGI [37] | TGI [44]
11.9 µM: TGI [43]
25.7 µM: TGI [47]
41.4 µM: TGI [17]
5.94 µM: TGI [14]
> 29 µM: TGI [51]
9.87 µM: TGI [25]
10.3 µM: TGI [57]
22.2 µM: TGI [41]
13.1 µM: TGI [4]
14 µM: TGI [58]
23.4 µM: TGI [34]
3.81 µM: TGI [26]
29.8 µM: TGI [15]
30.3 µM: TGI [42]
4.82 µM: TGI [52]
24.5 µM: TGI [31]
39.1 µM: TGI [2]
5.15 µM: TGI [28]
28.5 µM: TGI [1]
5.92 µM: TGI [46]
25.6 µM: TGI [5]
10.9 µM: TGI [23]
5.33 µM: TGI [12] | TGI [53]
23 µM: TGI [20]
31.8 µM: TGI [8] | TGI [10]
5.39 µM: TGI [39]
16.6 µM: TGI [45]
26.4 µM: TGI [55]
16.4 µM: TGI [38]
29.4 µM: TGI [9]
30.2 µM: TGI [33]
31 µM: TGI [29]
29.7 µM: TGI [6]
40.2 µM: TGI [3]
29.2 µM: TGI [19]
2.37 µM: TGI [27]
26.7 µM: TGI [36]
22.1 µM: TGI [50]
26.9 µM: TGI [40]
9.54 µM: TGI [35]
5.72 µM: TGI [21]
34.1 µM: TGI [18] | TGI [54]
25 µM: TGI [48]
15.8 µM: TGI [22]
9.08 µM: TGI [56]
23.8 µM: TGI [24]

N#CCCN(CCCN(CCCN(C(=O)Nc1ccccc1)c1ccccc1)C(=O)Nc1ccccc1)C(=O)Nc1ccccc1
> 100 µM: TGI [1] | TGI [2] | TGI [3] | TGI [5] | TGI [6] | TGI [8] | TGI [9] | TGI [11] | TGI [12] | TGI [13] | TGI [15] | TGI [17] | TGI [19] | TGI [20] | TGI [21] | TGI [22] | TGI [24] | TGI [25] | TGI [26] | TGI [27] | TGI [28] | TGI [29] | TGI [33] | TGI [34] | TGI [35] | TGI [36] | TGI [37] | TGI [38] | TGI [39] | TGI [40] | TGI [41] | TGI [42] | TGI [43] | TGI [44] | TGI [45] | TGI [46] | TGI [47] | TGI [48] | TGI [50] | TGI [52] | TGI [53] | TGI [54] | TGI [55] | TGI [56] | TGI [57]
> 8.75 µM and 43.1 µM: TGI [7]
80.4 µM: TGI [16]
> 8.75 µM and 15.6 µM: TGI [14]
inactive: GI50 [1] > 100 µM | GI50 [3] > 100 µM | GI50 [5] > 100 µM | GI50 [6] > 100 µM | GI50 [7] 4.35 µM | GI50 [8] > 100 µM | GI50 [9] > 100 µM | GI50 [10] 16.3 µM | GI50 [12] > 100 µM | GI50 [14] 5.2 µM | GI50 [15] > 100 µM | GI50 [19] 31.7 µM | GI50 [20] 18.7 µM | GI50 [22] > 100 µM | GI50 [23] 16 µM | GI50 [24] 11.9 µM | GI50 [25] > 100 µM | GI50 [26] 34.9 µM | GI50 [27] > 100 µM | GI50 [28] 3.95 µM | GI50 [33] > 100 µM | GI50 [34] > 100 µM | GI50 [36] > 100 µM | GI50 [37] 85.2 µM | GI50 [38] > 100 µM | GI50 [39] 3.89 µM | GI50 [40] > 100 µM | GI50 [41] 74.8 µM | GI50 [42] > 100 µM | GI50 [43] > 100 µM | GI50 [44] > 100 µM | GI50 [45] > 100 µM | GI50 [46] > 100 µM | GI50 [47] > 100 µM | GI50 [48] > 100 µM | GI50 [50] 59.5 µM | GI50 [52] > 100 µM | GI50 [53] > 100 µM | GI50 [54] > 100 µM | GI50 [56] > 100 µM | GI50 [57] > 100 µM
> 8.75 µM and 67.2 µM: TGI [23]
> 8.75 µM and 70.5 µM: TGI [10]
> 8.75 µM: TGI [4] | TGI [18] | TGI [59] | TGI [31] | TGI [49] | TGI [51] | TGI [58]

CCCCCCC(=O)O[C@H]1CC[C@H]2[C@@H]3CCC4C/C(=N/NC(=O)c5cccc6c(=O)c7ccccc7[nH]c56)C=C(C)[C@]4(C)[C@H]3CC[C@]12C (some centres not stated)
> 25 µM: TGI [1] | TGI [3] | TGI [4] | TGI [5] | TGI [6] | TGI [7] | TGI [8] | TGI [9] | TGI [10] | TGI [11] | TGI [12] | TGI [13] | TGI [14] | TGI [15] | TGI [16] | TGI [17] | TGI [18] | TGI [19] | TGI [59] | TGI [20] | TGI [21] | TGI [22] | TGI [23] | TGI [24] | TGI [25] | TGI [26] | TGI [27] | TGI [28] | TGI [29] | TGI [30] | TGI [33] | TGI [34] | TGI [35] | TGI [36] | TGI [37] | TGI [38] | TGI [39] | TGI [41] | TGI [42] | TGI [43] | TGI [44] | TGI [46] | TGI [47] | TGI [48] | TGI [49] | TGI [50] | TGI [51] | TGI [52] | TGI [53] | TGI [54] | TGI [55] | TGI [56] | TGI [57] | TGI [58]

C[C@@H](c1ccccc1)N1CN(C(=O)OCc2ccccc2)C(C)(C)CC1=O
70.9 µM: TGI [40]
> 100 µM: TGI [1] | TGI [3] | TGI [4] | TGI [5] | TGI [6] | TGI [7] | TGI [8] | TGI [9] | TGI [10] | TGI [11] | TGI [12] | TGI [13] | TGI [14] | TGI [15] | TGI [16] | TGI [17] | TGI [18] | TGI [19] | TGI [59] | TGI [20] | TGI [21] | TGI [22] | TGI [23] | TGI [24] | TGI [25] | TGI [26] | TGI [27] | TGI [28] | TGI [29] | TGI [30] | TGI [31] | TGI [32] | TGI [33] | TGI [34] | TGI [35] | TGI [36] | TGI [37] | TGI [38] | TGI [39] | TGI [41] | TGI [42] | TGI [43] | TGI [44] | TGI [45] | TGI [46] | TGI [47] | TGI [48] | TGI [49] | TGI [50] | TGI [51] | TGI [52] | TGI [53] | TGI [54] | TGI [55] | TGI [56] | TGI [57]

CC(=O)Oc1ccc(-c2cc3ccccc3oc2=O)cc1
70.9 µM: TGI [34]
39.9 µM: TGI [20]
> 100 µM: TGI [1] | TGI [2] | TGI [3] | TGI [4] | TGI [5] | TGI [7] | TGI [8] | TGI [9] | TGI [10] | TGI [11] | TGI [12] | TGI [13] | TGI [14] | TGI [15] | TGI [16] | TGI [17] | TGI [18] | TGI [59] | TGI [21] | TGI [22] | TGI [23] | TGI [24] | TGI [25] | TGI [26] | TGI [27] | TGI [28] | TGI [29] | TGI [30] | TGI [31] | TGI [32] | TGI [33] | TGI [35] | TGI [36] | TGI [37] | TGI [38] | TGI [39] | TGI [41] | TGI [42] | TGI [43] | TGI [44] | TGI [45] | TGI [48] | TGI [49] | TGI [50] | TGI [51] | TGI [52] | TGI [53] | TGI [54] | TGI [55] | TGI [56] | TGI [58]

COc1c(O)cc2oc(-c3ccc(O)cc3)cc(=O)c2c1O
58.2 µM: TGI [50]
65.1 µM: TGI [7]
68.1 µM: TGI [57]
16.1 µM: TGI [2]
> 100 µM: TGI [1] | TGI [3] | TGI [4] | TGI [5] | TGI [8] | TGI [9] | TGI [12] | TGI [13] | TGI [14] | TGI [15] | TGI [18] | TGI [59] | TGI [20] | TGI [21] | TGI [22] | TGI [23] | TGI [24] | TGI [25] | TGI [26] | TGI [27] | TGI [29] | TGI [30] | TGI [31] | TGI [32] | TGI [33] | TGI [34] | TGI [35] | TGI [36] | TGI [38] | TGI [39] | TGI [40] | TGI [41] | TGI [42] | TGI [43] | TGI [44] | TGI [45] | TGI [47] | TGI [48] | TGI [49] | TGI [52] | TGI [53] | TGI [54] | TGI [55] | TGI [56] | TGI [58]
63.6 µM: TGI [51]
83.2 µM: TGI [28]
80.3 µM: TGI [11]
63.7 µM: TGI [46]
73.8 µM: TGI [17]
98.1 µM: TGI [10]
36.8 µM: TGI [16]
76.9 µM: TGI [19]
